According to the supplement of paper PMC11451515:

System: NOMO1
Assay: cell viability relative to DMSO control; higher = less cytotoxic
Settings: 48 h
How it was run: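 Before seeding, each leukemia line was adapted for at least four passages in each medium. NOMO1 or SEM cells (500 cells/well) and P12-Ichikawa cells (1000 cells/well) went into 1536-well plates at 5 μl, then received library compounds in DMSO by pin dosing across 11 threefold concentrations, 47 μM to 0.79 nM. Readout was CellTiter-Glo One luminescence after 48 h at 37°C, and viability is given as a per-plate percentage of DMSO wells, with cell-free wells as background.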

[1] = HPLM + 10% dialyzed FBS, 0.000781 µM
[2] = HPLM + 10% dialyzed FBS, 0.00234 µM
[3] = HPLM + 10% dialyzed FBS, 0.00702 µM
[4] = HPLM + 10% dialyzed FBS, 0.0211 µM
[5] = HPLM + 10% dialyzed FBS, 0.0632 µM
[6] = HPLM + 10% dialyzed FBS, 0.19 µM
[7] = HPLM + 10% dialyzed FBS, 0.569 µM
[8] = HPLM + 10% dialyzed FBS, 1.71 µM
[9] = HPLM + 10% dialyzed FBS, 5.12 µM
[10] = HPLM + 10% dialyzed FBS, 15.4 µM
[11] = HPLM + 10% dialyzed FBS, 46.1 µM
[12] = RPMI 5 mM glucose + 10% FBS, 0.000781 µM
[13] = RPMI 5 mM glucose + 10% FBS, 0.00234 µM
[14] = RPMI 5 mM glucose + 10% FBS, 0.00702 µM
[15] = RPMI 5 mM glucose + 10% FBS, 0.0211 µM
[16] = RPMI 5 mM glucose + 10% FBS, 0.0632 µM
[17] = RPMI 5 mM glucose + 10% FBS, 0.19 µM
[18] = RPMI 5 mM glucose + 10% FBS, 0.569 µM
[19] = RPMI 5 mM glucose + 10% FBS, 1.71 µM
[20] = RPMI 5 mM glucose + 10% FBS, 5.12 µM
[21] = RPMI 5 mM glucose + 10% FBS, 15.4 µM
[22] = RPMI 5 mM glucose + 10% FBS, 46.1 µM
[23] = RPMI 5 mM glucose + 10% dialyzed FBS, 0.000781 µM
[24] = RPMI 5 mM glucose + 10% dialyzed FBS, 0.00234 µM
[25] = RPMI 5 mM glucose + 10% dialyzed FBS, 0.00702 µM
[26] = RPMI 5 mM glucose + 10% dialyzed FBS, 0.0211 µM
[27] = RPMI 5 mM glucose + 10% dialyzed FBS, 0.0632 µM
[28] = RPMI 5 mM glucose + 10% dialyzed FBS, 0.19 µM
[29] = RPMI 5 mM glucose + 10% dialyzed FBS, 0.569 µM
[30] = RPMI 5 mM glucose + 10% dialyzed FBS, 1.71 µM
[31] = RPMI 5 mM glucose + 10% dialyzed FBS, 5.12 µM
[32] = RPMI 5 mM glucose + 10% dialyzed FBS, 15.4 µM
[33] = RPMI 5 mM glucose + 10% dialyzed FBS, 46.1 µM

Compound	cell viability [1]	cell viability [2]	cell viability [3]	cell viability [4]	cell viability [5]	cell viability [6]	cell viability [7]	cell viability [8]	cell viability [9]	cell viability [10]	cell viability [11]	cell viability [12]	cell viability [13]	cell viability [14]	cell viability [15]	cell viability [16]	cell viability [17]	cell viability [18]	cell viability [19]	cell viability [20]	cell viability [21]	cell viability [22]	cell viability [23]	cell viability [24]	cell viability [25]	cell viability [26]	cell viability [27]	cell viability [28]	cell viability [29]	cell viability [30]	cell viability [31]	cell viability [32]	cell viability [33]
CCC(C)(Oc1ccc(C2(c3ccc(OC(C)(CC)C(=O)O)cc3)CCCCC2)cc1)C(=O)O (stereo not drawn)	89.3%	107%	89.4%	108%	118%	101%	93.8%	124%	102%	85.1%	99.4%	104%	101%	95.5%	99.2%	102%	89.4%	97.6%	97.7%	92.8%	84%	84.3%	100%	94.4%	111%	96.1%	99.8%	94%	107%	103%	87%	93.9%	101%
COc1ccc(-c2nc(N3CCOCC3)c3sc(CN(C)c4ncc(C(=O)NO)cn4)cc3n2)cn1	109%	132%	86.2%	62.8%	12.6%	8.22%	7.83%	8.13%	7.89%	7.72%	6.31%	110%	112%	100%	65.4%	14.2%	8.1%	8.11%	8.29%	7.05%	7.28%	6.26%	117%	132%	104%	73.7%	22.8%	7.51%	7.58%	7.17%	6.72%	6.98%	6.02%
N[C@H](CSC(c1ccccc1)(c1ccccc1)c1ccccc1)C(=O)O	108%	114%	133%	135%	116%	108%	115%	125%	120%	129%	99.6%	121%	113%	126%	131%	123%	118%	138%	139%	114%	115%	106%	106%	116%	117%	129%	131%	127%	134%	126%	108%	109%	116%
CNC1CCC(N(Cc2cccc(-c3ccncc3)c2)C(=O)c2sc3c(F)ccc(F)c3c2Cl)CC1 (stereo not drawn)	92.9%	111%	121%	123%	127%	106%	111%	113%	100%	97.8%	36.5%	95.3%	108%	100%	106%	118%	105%	117%	105%	99%	104%	81%	87%	99.2%	104%	115%	112%	99.7%	110%	100%	100%	108%	57.4%
CN1\C(=C(\O)C2=CC=CC=C2[S+]1([O-])=O)C(=O)NC3=NC=C(C)S3	101%	111%	101%	114%	99.5%	116%	113%	116%	102%	86.1%	116%	81.1%	91.5%	88.4%	91.7%	98.7%	96.8%	101%	88.3%	96.7%	99.3%	95.9%	84.2%	86.3%	85.6%	81.9%	81.5%	93.6%	79.6%	76%	91.9%	92.7%	91.8%
COc1cc(OC)c(/C=C/[S+](=O)([O-])Cc2ccc(OC)c(NCC(=O)[O][Na])c2)c(OC)c1	120%	113%	119%	118%	126%	60.3%	43.7%	47.7%	44%	42.5%	34.4%	110%	104%	102%	121%	109%	99.6%	27.6%	23.9%	27%	26.7%	24.9%	111%	128%	111%	117%	122%	37.5%	31.7%	26.1%	26.2%	23.6%	24.1%
COc1ccc(-c2ccc3c(N4CCOC[C@@H]4C)nc(N4CCOC[C@@H]4C)nc3n2)cc1CO	93.6%	76.5%	93.1%	82.1%	74.5%	64.6%	58.7%	55.1%	48%	9.86%	3.58%	103%	75.7%	94%	95.6%	90.4%	84.5%	75.1%	72.4%	63.4%	41.7%	4.25%	102%	63.9%	98.6%	86%	85.9%	69%	64%	70.5%	57.4%	52.4%	5.83%
CN1CCCN=C1/C=C/c1cccs1.O=C(O)c1cc2ccccc2c(Cc2c(O)c(C(=O)O)cc3ccccc23)c1O	114%	111%	126%	108%	122%	112%	123%	120%	104%	34.1%	17.2%	115%	121%	129%	112%	114%	111%	117%	137%	109%	92.7%	29.3%	120%	127%	114%	104%	110%	110%	119%	110%	110%	64.4%	28.9%
CNc1nccc(-c2cccnc2Oc2cc(C(=O)Nc3cccc(C(F)(F)F)c3)ccc2C)n1	104%	111%	120%	135%	130%	147%	127%	117%	115%	82.7%	110%	115%	102%	112%	125%	120%	133%	130%	119%	112%	87.7%	98.2%	98%	105%	108%	116%	108%	134%	105%	125%	125%	78.2%	99.1%
Cc1cn(-c2cc(NC(=O)c3ccc(C)c(Nc4nccc(-c5cccnc5)n4)c3)cc(C(F)(F)F)c2)cn1	100%	122%	123%	135%	130%	117%	103%	88.8%	95.3%	95.2%	114%	99.7%	111%	115%	127%	113%	131%	117%	66.5%	61.3%	74.2%	68.4%	102%	109%	107%	106%	114%	114%	111%	86.8%	67.2%	66.3%	62.9%
COCCCN1CCC(NC(=O)c2cc(Cl)c(N)c3c2OCC3)CC1	116%	124%	127%	119%	147%	137%	133%	150%	142%	137%	110%	–	–	–	–	–	–	–	–	–	–	–	–	–	–	–	–	–	–	–	–	–	–
CCn1c(-c2nonc2N)nc2cnc(Oc3cccc(NC(=O)c4ccc(OCCN5CCOCC5)cc4)c3)cc21	90.6%	123%	105%	117%	117%	104%	115%	110%	94.6%	95.3%	83.2%	92.8%	98.6%	111%	109%	110%	95.8%	87.4%	93.8%	82.4%	74.1%	64%	88.9%	107%	110%	102%	115%	103%	89.9%	87.6%	79.1%	71.2%	74.4%
FC1=CC=C(SC/2=N/N3\C=N/C(=O)/C(=C3/C=C2)C4=C(Cl)C=CC=C4Cl)C(=C1)F	99%	108%	108%	114%	112%	118%	119%	107%	101%	99.2%	50.2%	98.8%	93.2%	104%	118%	104%	115%	98.3%	105%	95.3%	104%	43.7%	98.7%	114%	105%	103%	101%	106%	108%	110%	108%	99%	72.5%
CCC(C)(C)c1ccc(CC(C)CN2C[C@@H](C)O[C@@H](C)C2)cc1 (stereo partly drawn)	87.4%	91.8%	87.9%	82%	93.3%	84.8%	97%	80.9%	93.6%	87.1%	87.9%	71.5%	74.7%	73.5%	77.9%	77.5%	76.5%	75.8%	82.3%	77.9%	80.7%	77.5%	69.8%	87.9%	78.8%	77%	83.4%	82%	90.2%	84%	85.2%	86.2%	88%
CC[C@H](C)[N]1C=C(C)C2=C1C=C(C=C2C(=O)NC\C3=C(C)\C=C(\C)NC3=O)C4=CC=C(N=C4)N5CCNCC5	112%	108%	125%	131%	130%	129%	124%	104%	127%	122%	82.3%	105%	108%	121%	123%	122%	115%	126%	115%	128%	113%	102%	116%	125%	124%	127%	128%	123%	137%	138%	148%	118%	96.4%
